PubChem BioAssay AID248 (DTP/NCI, 2004)
Several values for one entry are separate records, joined by “and”; a condition that tells them apart may be missing. Identical values can stand only once. Inconclusive results and toxic doses are left out. No stated cut-off is given here; in the data, active means T/C of 150% or more; inactive means T/C below 125%.

Test system: L1210 leukemia ip in BDF1 mice, survival T/C
Experiment: NCI In Vivo Anticancer Drug Screen. Data for tumor model L1210 Leukemia (intraperitoneal) in B6D2F1 (BDF1) mice
Settings: endpoint: mean survival time, higher = longer survival
Method in brief: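 Tumor was transplanted into mice, which were then dosed with test compound or vehicle alone. Survival was recorded for each group, and the treated figure was expressed relative to the control figure.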

[1] = dose: 50.0 mg/kg/injection, schedule: Q01DX009 (ip), vehicle: Klucel (hydroxypropylcellulose) (HPC)
[2] = dose: 100.0 mg/kg/injection, schedule: Q01DX009 (ip), vehicle: Klucel (hydroxypropylcellulose) (HPC)
[3] = dose: 50.0 mg/kg/injection, schedule: Q01DX009 (ip), vehicle: saline with Tween-80
[4] = dose: 100.0 mg/kg/injection, schedule: Q01DX009 (ip), vehicle: saline with Tween-80
[5] = dose: 200.0 mg/kg/injection, schedule: Q01DX009 (ip), vehicle: saline with Tween-80
[6] = dose: 100.0 mg/kg/injection, schedule: Q04DX003 (ip), vehicle: Klucel (hydroxypropylcellulose) (HPC)
[7] = dose: 200.0 mg/kg/injection, schedule: Q04DX003 (ip), vehicle: Klucel (hydroxypropylcellulose) (HPC)
[8] = dose: 400.0 mg/kg/injection, schedule: Q04DX003 (ip), vehicle: Klucel (hydroxypropylcellulose) (HPC)
[9] = dose: 100.0 mg/kg/injection, schedule: Q01DX009 (ip), vehicle: saline
[10] = dose: 100.0 mg/kg/injection, schedule: Q04DX003 (ip), vehicle: saline
[11] = dose: 200.0 mg/kg/injection, schedule: Q01DX009 (ip), vehicle: saline
[12] = dose: 200.0 mg/kg/injection, schedule: Q04DX003 (ip), vehicle: saline
[13] = dose: 400.0 mg/kg/injection, schedule: Q01DX009 (ip), vehicle: saline
[14] = dose: 400.0 mg/kg/injection, schedule: Q04DX003 (ip), vehicle: saline
[15] = dose: 50.0 mg/kg/injection, schedule: Q01DX001 (ip), vehicle: carboxymethylcellulose (CMC)
[16] = dose: 100.0 mg/kg/injection, schedule: Q01DX001 (ip), vehicle: carboxymethylcellulose (CMC)
[17] = dose: 200.0 mg/kg/injection, schedule: Q01DX001 (ip), vehicle: carboxymethylcellulose (CMC)
[18] = dose: 400.0 mg/kg/injection, schedule: Q01DX001 (ip), vehicle: carboxymethylcellulose (CMC)
[19] = dose: 6.25 mg/kg/injection, schedule: Q01DX009 (ip), vehicle: saline
[20] = dose: 12.5 mg/kg/injection, schedule: Q01DX009 (ip), vehicle: saline

Measured: T/C

O=C(N1CCCCC1)C(Cl)(Cl)Cl
inactive: [1] 98 % of control | [2] 88 % of control | dose: 100.0 mg/kg/injection, schedule: Q04DX002 (ip), vehicle: Klucel (hydroxypropylcellulose) (HPC) 92 % of control | dose: 200.0 mg/kg/injection, schedule: Q04DX002 (ip), vehicle: Klucel (hydroxypropylcellulose) (HPC) 110 % of control

O=NN(CC(F)(F)F)C(=O)NC1CCCCC1 (tested in a mixture with another compound)
inactive: dose: 8.0 mg/kg/injection, schedule: Q01DX001 (ip), vehicle: other 100 % of control | dose: 16.0 mg/kg/injection, schedule: Q01DX001 (ip), vehicle: other 95 % of control | dose: 31.0 mg/kg/injection, schedule: Q01DX001 (ip), vehicle: other 94 % of control | dose: 62.0 mg/kg/injection, schedule: Q01DX001 (ip), vehicle: other 97 % of control | dose: 125.0 mg/kg/injection, schedule: Q01DX001 (ip), vehicle: other 101 % of control | dose: 250.0 mg/kg/injection, schedule: Q01DX001 (ip), vehicle: other 94 % of control | dose: 375.0 mg/kg/injection, schedule: Q01DX001 (ip), vehicle: other 101 % of control

CCC(=O)c1cc([N+](=O)[O-])ccc1N
inactive: [3] 100 % of control | [4] 100 % of control | [5] 100 % of control

COc1ccc(OC)c(NC(=O)Oc2ccccc2F)c1
inactive: [1] 97 % of control | [2] 93 % of control | [6] 90 % of control | [7] 93 % of control | [8] 92 % of control

CNC(=O)CCCCC(=O)NC
inactive: [9] 107 % of control | [10] 103 % of control | [11] 102 % of control | [12] 98 % of control | [13] 108 % of control | [14] 101 % of control

CC(=O)CCSC(C)C
inactive: [3] 89 % of control | [4] 92 % of control | [5] 92 % of control

Nc1ccc(N)c2c1C(=O)c1cccc([N+](=O)[O-])c1C2=O
inactive: [15] 101 % of control | [16] 97 % of control | [17] 95 % of control | [18] 95 % of control

CN(C)/N=N/c1nc[nH]c1C(=O)N/N=C/c1ccc(N(CCCl)CCCl)cc1
inactive: dose: 100.0 mg/kg/injection, schedule: Q01DX001 (ip), vehicle: other 100 % of control | dose: 200.0 mg/kg/injection, schedule: Q01DX001 (ip), vehicle: other 104 % of control | dose: 400.0 mg/kg/injection, schedule: Q01DX001 (ip), vehicle: other 98 % of control

CSCCNC(=O)CS(=O)(=O)c1ccc(N)cc1
inactive: dose: 100.0 mg/kg/injection, schedule: Q04DX003 (ip), vehicle: saline with Tween-80 97 % of control | dose: 200.0 mg/kg/injection, schedule: Q04DX003 (ip), vehicle: saline with Tween-80 97 % of control | dose: 400.0 mg/kg/injection, schedule: Q04DX003 (ip), vehicle: saline with Tween-80 97 % of control

CC(=O)CC(=O)NC1CCCCCC1
inactive: [2] 92 % of control | [6] 100 % of control | dose: 200.0 mg/kg/injection, schedule: Q01DX009 (ip), vehicle: Klucel (hydroxypropylcellulose) (HPC) 103 % of control | [7] 100 % of control | dose: 400.0 mg/kg/injection, schedule: Q01DX009 (ip), vehicle: Klucel (hydroxypropylcellulose) (HPC) 97 % of control | [8] 96 % of control

O=C(O)/C(Br)=C\c1cccc([N+](=O)[O-])c1
inactive: dose: 100.0 mg/kg/injection, schedule: Q01DX001 (ip), vehicle: saline 107 % of control | dose: 200.0 mg/kg/injection, schedule: Q01DX001 (ip), vehicle: saline 98 % of control | dose: 400.0 mg/kg/injection, schedule: Q01DX001 (ip), vehicle: saline 109 % of control

COc1cc(C(=O)NNC(=O)c2ccc(Cl)c(Cl)c2)cc(OC)c1OC
inactive: dose: 100.0 mg/kg/injection, schedule: Q01DX001 (ip), vehicle: saline with Tween-80 93 % of control | [4] 100 % of control and 89 % of control | dose: 100.0 mg/kg/injection, schedule: Q04DX002 (ip), vehicle: saline with Tween-80 93 % of control and 104 % of control | dose: 200.0 mg/kg/injection, schedule: Q01DX001 (ip), vehicle: saline with Tween-80 97 % of control | [5] 101 % of control and 86 % of control | dose: 200.0 mg/kg/injection, schedule: Q04DX002 (ip), vehicle: saline with Tween-80 101 % of control and 110 % of control | dose: 400.0 mg/kg/injection, schedule: Q01DX001 (ip), vehicle: saline with Tween-80 90 % of control | dose: 400.0 mg/kg/injection, schedule: Q01DX009 (ip), vehicle: saline with Tween-80 92 % of control and 97 % of control | dose: 400.0 mg/kg/injection, schedule: Q04DX002 (ip), vehicle: saline with Tween-80 102 % of control and 87 % of control

NC(N)=N/N=C/c1cccc2ccccc12
inactive: dose: 3.8 mg/kg/injection, schedule: Q01DX Z (ip), vehicle: other 102 % of control | [19] 95 % of control | dose: 6.25 mg/kg/injection, schedule: Q04DX003 (ip), vehicle: Klucel (hydroxypropylcellulose) (HPC) 104 % of control | dose: 7.5 mg/kg/injection, schedule: Q01DX Z (ip), vehicle: other 97 % of control | [20] 98 % of control | dose: 12.5 mg/kg/injection, schedule: Q04DX003 (ip), vehicle: Klucel (hydroxypropylcellulose) (HPC) 100 % of control | dose: 15.0 mg/kg/injection, schedule: Q01DX Z (ip), vehicle: other 105 % of control | dose: 25.0 mg/kg/injection, schedule: Q01DX009 (ip), vehicle: saline 88 % of control | dose: 25.0 mg/kg/injection, schedule: Q04DX003 (ip), vehicle: Klucel (hydroxypropylcellulose) (HPC) 104 % of control | dose: 30.0 mg/kg/injection, schedule: Q01DX Z (ip), vehicle: other 94 % of control

OCCCCC(O)c1ccccc1 (stereo not given)
inactive: [9] 107 % of control | [10] 116 % of control | [11] 96 % of control | [12] 107 % of control | [13] 100 % of control | [14] 112 % of control

O=C1/C(=C/c2ccccc2)Cc2cccc(O)c21
inactive: dose: 100.0 mg/kg/injection, schedule: Q01DX009 (ip), vehicle: saline sonified 100 % of control | dose: 200.0 mg/kg/injection, schedule: Q01DX009 (ip), vehicle: saline sonified 107 % of control | dose: 400.0 mg/kg/injection, schedule: Q01DX009 (ip), vehicle: saline sonified 102 % of control

Nc1cc(N)cc([N+](=O)[O-])c1
inactive: dose: 3.12 mg/kg/injection, schedule: Q01DX009 (ip), vehicle: saline 103 % of control | [19] 103 % of control | dose: 6.25 mg/kg/injection, schedule: Q04DX003 (ip), vehicle: saline 101 % of control | [20] 95 % of control | dose: 12.5 mg/kg/injection, schedule: Q04DX003 (ip), vehicle: saline 101 % of control | dose: 25.0 mg/kg/injection, schedule: Q04DX003 (ip), vehicle: saline 101 % of control | [15] 113 % of control | [16] 109 % of control | [17] 107 % of control | [18] 109 % of control
